Experimental data: patent US20260091020A1, “TREATMENT OF ACUTE CANNABINOID OVERDOSE” (Anebulo Pharmaceuticals, Inc., priority 2022, published 2026)
Like-named read-outs stand apart in the source and are kept apart here.

Assay: Plasma PK of ANEB-001 and THC, 30 mg or 10 mg oral Compound 1 with 21 mg THC (Example 4)
Assay type: in vivo, human
Settings: for concentration at 0 h / concentration at 20 min / concentration at 40 min / concentration at 1 h / concentration at 2 h / concentration at 3 h / concentration at 4 h / concentration at 5 h / concentration at 24 h / AUC(0-t) / Cmax / Tmax: human, in vivo; for concentration at 0 h: 00H00M; for concentration at 20 min: 00H20M; for concentration at 40 min: 00H40M; for concentration at 1 h: 01H00M; for concentration at 2 h: 02H00M; for concentration at 3 h: 03H00M; for concentration at 4 h: 04H00M; for concentration at 5 h: 05H00M; for concentration at 24 h: 24H00M; for Tmax: read-out: THC plasma tmax, Median
Experimental: Following the general methods of Example 2, the study design was adjusted such that groups received either (a) THC (21 mg)+placebo or (b) THC (21 mg)+Compound 1 (30 mg) (FIG. 14) or either (a) THC (21 mg)+placebo or (b) THC (21 mg)+Compound 1 (10 mg) (FIG. 15). […] Summary of pharmacokinetics of THC with 30 mg ANEB-001 challenge (FIG. 18A and FIG. 18B), AUC after 5 hours (FIG. 18C), AUC last (FIG. 18D) and Cmax (FIG. 18E).
Summary of pharmacokinetics for 30 mg ANEB-001 and 10 mg ANEB-001 challenge with 21 mg THC administration in plasma (FIGS. 19A and 19B); AUC after 5 hours for 10 mg ANEB-001 and 30 mg ANEB-001 (FIG. 19C), AUC last (FIG. 19D), and Cmax (FIG. 19E).
All PK parameter calculations were based on actual sampling time. For calculation of PK parameters, all BLQ concentrations that were between the first and last non-BLQ values were dropped (treated as ‘missing’). For calculation of AUClast and t1/2, additionally all values that were BLQ after the last non-BLQ value were dropped (treated as missing). If data points for concentrations were missing, the AUC parameters were derived by interpolating with regard to the 2 neighboring non-missing concentrations. AUC was calculated using the log-linear trapezoidal rule.
Reporting of drug concentration data. The concentrations are summarized (mean, SD, % CV, median, Min and Max values) by treatment and time, and are also presented graphically as mean over time, with standard deviation as error bars. For graphical and summary purposes of drug concentrations, values below the limit of quantification (BLQ) are set to zero. The SD and CVT are not reported if the mean is 0.
Reporting of PK parameters. The individual PK parameters (except tmax and tlag) are summarized (mean, SD, CV, geometric mean, geometric CV, median, M in and Max) per treatment group and a selection of the PK parameters are presented graphically as boxplots. For tmax and tlag, the median, Min and Max statistics are reported. Boxplots present the median (horizontal solid line), the 25%-75% distribution (IQR), with 1.5× the IQR as whiskers.

[1] = 21 mg THC + 30 mg ANEB-001, read-out: THC in Plasma (concentration), Mean
[2] = 21 mg THC + 30 mg ANEB-001, read-out: THC in Plasma (concentration), Median
[3] = 21 mg, 21 mg THC + Placebo, read-out: THC in Plasma (concentration), Mean
[4] = 21 mg, 21 mg THC + Placebo, read-out: THC in Plasma (concentration), Median

Compound: CCCCCc1cc(O)c2c(c1)OC(C)(C)[C@@H]1CCC(C)=C[C@@H]21 [THC, Δ9-tetrahydrocannabinol]
- THC Dose normalized Cmax, GeoMean (21 mg THC + 30 mg ANEB-001): 0.4482 ng/mL/mg
- THC Dose normalized Cmax, Mean (21 mg THC + 30 mg ANEB-001): 0.4658 ng/mL/mg
- THC Dose normalized Cmax, Median (21 mg THC + 30 mg ANEB-001): 0.442 ng/mL/mg
- THC plasma tlag, Median (21 mg THC + 30 mg ANEB-001): 0 h
- THC Dose normalized Cmax, GeoMean (21 mg THC + Placebo): 0.2634 ng/mL/mg
- THC Dose normalized Cmax, Mean (21 mg THC + Placebo): 0.2965 ng/mL/mg
- THC Dose normalized Cmax, Median (21 mg THC + Placebo): 0.260 ng/mL/mg
- THC plasma AUC5H, Mean (21 mg THC + Placebo): 14.6 ng·h/mL
- THC plasma tlag, Median (21 mg THC + Placebo): 0 h
- concentration at 0 h [1]: 0.0163 ng/mL
- concentration at 0 h [2]: 0 ng/mL
- concentration at 20 min [1]: 4.16 ng/mL
- concentration at 20 min [2]: 3.48 ng/mL
- concentration at 40 min [1]: 8.94 ng/mL
- concentration at 40 min [2]: 8.4 ng/mL
- concentration at 1 h [1]: 7.45 ng/mL
- concentration at 1 h [2]: 7.31 ng/mL
- concentration at 2 h [1]: 4.07 ng/mL
- concentration at 2 h [2]: 4.01 ng/mL
- concentration at 3 h [1]: 2.46 ng/mL
- concentration at 3 h [2]: 2.03 ng/mL
- concentration at 4 h [1]: 1.22 ng/mL
- concentration at 4 h [2]: 1.28 ng/mL
- concentration at 5 h [1]: 0.744 ng/mL
- concentration at 5 h [2]: 0.684 ng/mL
- concentration at 24 h [1]: 0.0551 ng/mL
- concentration at 24 h [2]: 0 ng/mL
- AUC(0-t) (21 mg THC + 30 mg ANEB-001, read-out: THC plasma AUC5H, GeoMean): 16.3 ng·h/mL
- AUC(0-t) (21 mg THC + 30 mg ANEB-001, read-out: THC plasma AUC5H, Mean): 17 ng·h/mL
- AUC(0-t) (21 mg THC + 30 mg ANEB-001, read-out: THC plasma AUC5H, Median): 16.1 ng·h/mL
- AUC(0-t) (21 mg THC + 30 mg ANEB-001, read-out: THC plasma AUClast, GeoMean): 17.9 ng·h/mL
- AUC(0-t) (21 mg THC + 30 mg ANEB-001, read-out: THC plasma AUClast, Mean): 19.3 ng·h/mL
- AUC(0-t) (21 mg THC + 30 mg ANEB-001, read-out: THC plasma AUClast, Median): 18.4 ng·h/mL
- Cmax (21 mg THC + 30 mg ANEB-001, read-out: THC plasma Cmax, GeoMean): 9.41 ng/mL
- Cmax (21 mg THC + 30 mg ANEB-001, read-out: THC plasma Cmax, Mean): 9.78 ng/mL
- Cmax (21 mg THC + 30 mg ANEB-001, read-out: THC plasma Cmax, Median): 9.28 ng/mL
- Tmax (21 mg THC + 30 mg ANEB-001): 40.2 min
- concentration at 0 h [3]: 0 ng/mL
- concentration at 0 h [4]: 0 ng/mL
- concentration at 20 min [3]: 2.22 ng/mL
- concentration at 20 min [4]: 2.01 ng/mL
- concentration at 40 min [3]: 6.1 ng/mL
- concentration at 40 min [4]: 5.46 ng/mL
- concentration at 1 h [3]: 5.78 ng/mL
- concentration at 1 h [4]: 5.47 ng/mL
- concentration at 2 h [3]: 2.85 ng/mL
- concentration at 2 h [4]: 1.86 ng/mL
- concentration at 3 h [3]: 3.23 ng/mL
- concentration at 3 h [4]: 1.47 ng/mL
- concentration at 4 h [3]: 1.66 ng/mL
- concentration at 4 h [4]: 0.894 ng/mL
- concentration at 5 h [3]: 1.06 ng/mL
- concentration at 5 h [4]: 0.456 ng/mL
- concentration at 24 h [3]: 0.0206 ng/mL
- concentration at 24 h [4]: 0 ng/mL
- AUC(0-t) (21 mg, 21 mg THC + Placebo, read-out: THC plasma AUC5H, GeoMean): 12 ng·h/mL
- AUC(0-t) (21 mg, 21 mg THC + Placebo, read-out: THC plasma AUC5H, Median): 9.32 ng·h/mL
- AUC(0-t) (21 mg, 21 mg THC + Placebo, read-out: THC plasma AUClast, GeoMean): 13 ng·h/mL
- AUC(0-t) (21 mg, 21 mg THC + Placebo, read-out: THC plasma AUClast, Mean): 18.3 ng·h/mL
- AUC(0-t) (21 mg, 21 mg THC + Placebo, read-out: THC plasma AUClast, Median): 9.32 ng·h/mL
- Cmax (21 mg, 21 mg THC + Placebo, read-out: THC plasma Cmax, GeoMean): 5.53 ng/mL
- Cmax (21 mg, 21 mg THC + Placebo, read-out: THC plasma Cmax, Mean): 6.23 ng/mL
- Cmax (21 mg, 21 mg THC + Placebo, read-out: THC plasma Cmax, Median): 5.47 ng/mL
- Tmax (21 mg THC + Placebo): 40.2 min
